The results in this text go back to patent US12410457B2, “Use of rosmarinic acid in cell bioproduction” (BRISTOL-MYERS SQUIBB COMPANY, priority 2015, dated 2025).

What all share (format): cell-based, Chinese Hamster
The subject of test [1] is aCD137 cells. Nature of the test: Screen of antioxidants added to feed media in aCD137 fed-batch cell culture. The following applies: for VCD %: day 8 (peak VCD), basal media not supplemented; for VCD % / Titer %: normalized to control without antioxidant; for Titer %: final titer harvested day 14. The protocol:
Following the cell culture process described in Example 1, thirteen novel antioxidants (Table 1) were added to the feed media utilized in aCD137 cell culture. Three antioxidant concentrations were evaluated: 1 mM (Run #1-13), 0.25 mM (Run #17-29), and 0.0625 mM (Run #33-45). The antioxidants were dissolved in either pure ethanol or dimethyl sulfoxide (DMSO) at 50 mM stock concentration and added to feed media M154A1B at the designed final concentrations. The corresponding solvent negative controls were run number 16, 32, and 48. Two traditional antioxidants, ascorbic acid (Run #14, 30, and 46) and reduced glutathione (Run #15, 31, and 47), served as positive controls. The basal media M171IB was not supplemented with antioxidant.
(§1) Cells were cultured either in 50 ml spin tubes with an initial volume of 25 ml and a shaking speed of 300 rpm; or 250 ml shake flasks with an initial volume of 80˜100 ml and a shaking speed of 150 rpm on an orbital shaker with 25 mm throw distance. Temperature for the culture was controlled at constant 37° C. from the beginning of the culture and was shifted to 34° C. when viable cell density reached 10^6 cells/ml (usually on day 6) and CO2 was controlled at 6%.
(§2) A standard fed-batch culture process involved culturing the cells for 14 days with feeding beginning on day 3 at a feeding volume of 3.64% of initial culture volume. All the media used for cultures were chemically defined. Chemically defined feed media M154A1B is an enriched version of feed media F3.2. While the ingredient lists are the same between the two feed media, the concentration of a few of the ingredients is increased. Likewise, chemically defined basal media M17IB is an enriched version of basal media B1. For cultures in 7-liter or 500-liter reactors, dissolved oxygen (DO) was maintained at 50% and pH was controlled between 6.8 and 7.4.
(§3) Viable cell density (VCD) and cell viability were measured off-line using a CEDEX® automated cell counter (Innovatis AG). Culture samples were also analyzed off-line using a BIOPROFILE® 400 Analyzer to monitor pH, pCO2, pO2, glucose, glutamine, glutamate, lactate, and ammonium (Nova Biomedical Corporation). A Protein A HPLC method was used to measure protein titer, which were reported as normalized values.

Test [2] relates to aCD137 cells. The test is described as follows: aCD137 fed-batch culture with antioxidant in basal and/or feed media (shaker flask, 7-liter, 500-liter). The procedure:
In another embodiment, the dhfr-negative Chinese Hamster Ovary (CHO) cell line DG44 (Invitrogen Corp. Carlsbad, CA) were transfected in order to establish a stable cell line expressing a human IgG4 antibody.
The transfected CHO DG44 cells expressing the antibody was grown in the presence of antioxidants according to the methods of the invention.
as §1, §2, §3

A further test has as its system aCD40L cells. Nature of the test: aCD40L cell shake flask culture with catechin in feed media. The settings on record: feed media 154A1 at 0.34 μM, 3.45 μM, 34.45 μM, 344.52 μM; basal media M17IB without catechin; shake flasks. The protocol:
(§4) In another embodiment, the dhfr-negative Chinese Hamster Ovary (CHO) cell line DG44 (Invitrogen Corp. Carlsbad, CA) was transfected in order to establish a stable cell line expressing a recombinant human fusion protein.
(§5) The transfected CHO DG44 cells expressing the fusion protein was grown in the presence of antioxidants according to the methods of the invention.
as §1
A standard fed-batch culture process involved culturing the cells for 14 days with feeding beginning on day 3 at a feeding volume of 3.64% of initial culture volume. All the media used for cultures were chemically defined. […]
Viable cell density (VCD) and cell viability were measured off-line using a CEDEX® automated cell counter (Innovatis AG). Culture samples were also analyzed off-line using a BIOPROFILE® 400 Analyzer to monitor pH, pCO2, pO2, glucose, glutamine, glutamate, lactate, and ammonium (Nova Biomedical Corporation). […]

The test system of the next test is myostatin cells. The test is described as follows: Myostatin cell culture with antioxidant in basal and/or feed media (shake flask, 20-liter reactor). The procedure:
as §4, §5, §1, §2, §3

The mark [3] stands for this setting: basal media M17IB 0.07 mM and feed media M154A1B 1 mM, shaker flask fed-batch.
[4] abbreviates: 0.0625 mM in feed media M154A1B.
[5] abbreviates: feed at all three concentrations (0.0625-1 mM).
Where [6] appears, read: basal media M17IB at 0.1 mM, feed media M154A1B, 7-liter fed-batch.
[7] abbreviates: feed media F3.2 at 1 mM, basal media B1, shaker flask fed-batch.
Where [8] appears, read: basal media B1 at 0.1 mM, feed media F3.2, 20-liter bioreactor.
[9] abbreviates: basal media at 0.1 mM, 500-liter production run.
Where [10] appears, read: basal media B1 at 0.1 mM or feed media F3.2 at 1 mM or both, shake flask.

Consider `O=c1c(O)c(-c2ccc(O)c(O)c2)oc2cc(O)cc(O)c12` [Quercetin, quercetin], for which, in the test with aCD137 cells [1] (0.25 mM in feed media M154A1B), the VCD % is 119.28% and the Titer % stood at 111.90%. In the test with aCD137 cells [1] (1 mM in feed media M154A1B), this molecule gave a VCD % of 123.11% and a Titer % of 128.97%. For the same molecule, the protein titer entry in the test with aCD137 cells [1] (feed at 0.25 mM and 1 mM) is listed as “increased protein titer”. Moreover, in the test with aCD137 cells [2] (setting [3]), the protein titer entry is listed as “increased” and the viable cell density result was “increased”.
In the test with aCD137 cells [1] (1 mM in feed media M154A1B), `COc1cc(C2Oc3cc([C@H]4Oc5cc(O)cc(O)c5C(=O)[C@@H]4O)ccc3OC2CO)ccc1O` (stereo partly drawn) [Silibinin, silibinin] registered a VCD % of 99.11% and a Titer % of 144.44%.
With `O=C(/C=C/c1ccc(O)c(O)c1)O[C@@H]1C[C@](O)(C(=O)O)C[C@@H](O)[C@H]1O` [Chlorogenic acid, chlorogenic acid], the VCD % in the test on aCD137 cells [1] (setting [4]) is on record as 115.85%; in the test with aCD137 cells [1] (0.25 mM in feed media M154A1B) it was 109.35%; with aCD137 cells [1] (1 mM in feed media M154A1B), 129.57%. The Titer % in the test with aCD137 cells [1] (setting [4]) came out at 110.71%; in the test with aCD137 cells [1] (0.25 mM in feed media M154A1B) it was 109.92%; in the test with aCD137 cells [1] (1 mM in feed media M154A1B), 151.59%. The protein titer entry is “increased protein titer” with aCD137 cells [1] (setting [5]) and “increased” with aCD137 cells [2] (setting [3]). The viable cell density entry in the test on aCD137 cells [2] (setting [3]) is recorded as “increased”.
With catechin, the results for the VCD % in the test on aCD137 cells [1] (setting [4]), with aCD137 cells [1] (0.25 mM in feed media M154A1B) and with aCD137 cells [1] (1 mM in feed media M154A1B) were 98.66%, 93.52% and 102.01%, respectively. Besides, the Titer % with aCD137 cells [1] (setting [4]) is on record as 111.90%; with aCD137 cells [1] (0.25 mM in feed media M154A1B), 112.70%; with aCD137 cells [1] (1 mM in feed media M154A1B), 116.67%. The protein titer result is recorded as “increased protein titer” in the test with aCD137 cells [1] (setting [5]); “corresponds to an increase in catechin concentration” in the test with aCD40L cells; “increased” with aCD137 cells [2] (setting [3]); “increased” in the test with aCD137 cells [2] (setting [6]); “increased” in the test on aCD137 cells [2] (setting [7]); “effect on protein titer was maintained” in the test with myostatin cells (setting [8]). For the same molecule, the viable cell density entry was “corresponds to an increase in catechin concentration” in the test with aCD40L cells; “increased” in the test on aCD137 cells [2] (setting [3]); “increased” in the test with aCD137 cells [2] (setting [6]); “maintained” with aCD137 cells [2] (setting [7]); “not changed” in the test with myostatin cells (setting [8]). The ammonium formation result in the test with aCD137 cells [2] (setting [6]) is listed as “reduced”. Also, the lactate formation result with aCD137 cells [2] (setting [6]) is listed as “reduced”.
As to `O=C(/C=C/c1ccc(O)c(O)c1)O[C@H](Cc1ccc(O)c(O)c1)C(=O)O` [Rosmarinic acid, rosmarinic acid], the results for the VCD % with aCD137 cells [1] (setting [4]), in the test with aCD137 cells [1] (0.25 mM in feed media M154A1B) and with aCD137 cells [1] (1 mM in feed media M154A1B) were 129.25%, 125.43% and 124.08%, respectively. The Titer % with aCD137 cells [1] (setting [4]) was 132.14%; in the test with aCD137 cells [1] (0.25 mM in feed media M154A1B), 146.83%; in the test on aCD137 cells [1] (1 mM in feed media M154A1B), 180.16%. Also, the protein titer entry with aCD137 cells [1] (setting [5]) was “increased protein titer”; with aCD137 cells [2] (setting [3]), “increased”; in the test on aCD137 cells [2] (setting [6]) it was “increased”; in the test on aCD137 cells [2] (setting [9]), “increased”; with myostatin cells (setting [10]), “increased”; in the test on myostatin cells (setting [8]) it was “effect on protein titer was maintained”. For the same molecule, the viable cell density entry is “increased” in the test on aCD137 cells [2] (setting [3]); “increased” in the test on aCD137 cells [2] (setting [6]); “increased” in the test on aCD137 cells [2] (setting [9]); “increased” in the test on myostatin cells (setting [10]); “not changed” in the test on myostatin cells (setting [8]). The ammonium formation result with aCD137 cells [2] (setting [6]) and in the test on myostatin cells (setting [10]) was “reduced” in each case. The lactate formation entry in the test on aCD137 cells [2] (setting [6]) and in the test with aCD137 cells [2] (setting [9]) was “reduced” in each case.
In the case of `Oc1ccc(C=Cc2cc(O)cc(O)c2)cc1` [Resveratrol, resveratrol], the VCD % was found to be 102.53% with aCD137 cells [1] (setting [4]), 92.24% in the test with aCD137 cells [1] (0.25 mM in feed media M154A1B) and 107.48% with aCD137 cells [1] (1 mM in feed media M154A1B). Moreover, the Titer % in the test with aCD137 cells [1] (setting [4]) is 112.70%; with aCD137 cells [1] (0.25 mM in feed media M154A1B), 111.90%; in the test on aCD137 cells [1] (1 mM in feed media M154A1B), 144.05%. In addition, the protein titer result with aCD137 cells [1] (setting [5]) is given as “increased protein titer”; with aCD137 cells [2] (setting [3]) it was “increased”. In addition, the viable cell density result in the test on aCD137 cells [2] (setting [3]) is listed as “increased”.
In the test on aCD137 cells [1] (1 mM in feed media M154A1B), `Oc1ccc(-c2[o+]c3cc(O)cc(O)c3cc2O)cc1` [Pelargonidin, pelargonidin] had a VCD % of 104.47% and a Titer % of 118.25%.
